Experimental data reported in publication PMC7490411 (Signal Transduction and Targeted Therapy, 2020).

Key:
[1] = tested on: BMPR1A; assay: KINOMEscan; type: binding; details: 1000 nM
[2] = tested on: PIK3CA(E542K); assay: KINOMEscan; type: binding; details: 1000 nM
[3] = tested on: JAK1(JH2domain-pseudokinase); assay: KINOMEscan; type: binding; details: 1000 nM
[4] = tested on: p38-alpha; assay: KINOMEscan; type: binding; details: 1000 nM
[5] = target: T1, JAK3 (Homo sapiens, UniProt P52333); assay: ADP-Glo biochemical kinase assay; details: read-out: IC50 against JAK3
T1 construct: purchased Invitrogen (Carlsbad, CA, USA)
T1 sequence (P52333 whole entry): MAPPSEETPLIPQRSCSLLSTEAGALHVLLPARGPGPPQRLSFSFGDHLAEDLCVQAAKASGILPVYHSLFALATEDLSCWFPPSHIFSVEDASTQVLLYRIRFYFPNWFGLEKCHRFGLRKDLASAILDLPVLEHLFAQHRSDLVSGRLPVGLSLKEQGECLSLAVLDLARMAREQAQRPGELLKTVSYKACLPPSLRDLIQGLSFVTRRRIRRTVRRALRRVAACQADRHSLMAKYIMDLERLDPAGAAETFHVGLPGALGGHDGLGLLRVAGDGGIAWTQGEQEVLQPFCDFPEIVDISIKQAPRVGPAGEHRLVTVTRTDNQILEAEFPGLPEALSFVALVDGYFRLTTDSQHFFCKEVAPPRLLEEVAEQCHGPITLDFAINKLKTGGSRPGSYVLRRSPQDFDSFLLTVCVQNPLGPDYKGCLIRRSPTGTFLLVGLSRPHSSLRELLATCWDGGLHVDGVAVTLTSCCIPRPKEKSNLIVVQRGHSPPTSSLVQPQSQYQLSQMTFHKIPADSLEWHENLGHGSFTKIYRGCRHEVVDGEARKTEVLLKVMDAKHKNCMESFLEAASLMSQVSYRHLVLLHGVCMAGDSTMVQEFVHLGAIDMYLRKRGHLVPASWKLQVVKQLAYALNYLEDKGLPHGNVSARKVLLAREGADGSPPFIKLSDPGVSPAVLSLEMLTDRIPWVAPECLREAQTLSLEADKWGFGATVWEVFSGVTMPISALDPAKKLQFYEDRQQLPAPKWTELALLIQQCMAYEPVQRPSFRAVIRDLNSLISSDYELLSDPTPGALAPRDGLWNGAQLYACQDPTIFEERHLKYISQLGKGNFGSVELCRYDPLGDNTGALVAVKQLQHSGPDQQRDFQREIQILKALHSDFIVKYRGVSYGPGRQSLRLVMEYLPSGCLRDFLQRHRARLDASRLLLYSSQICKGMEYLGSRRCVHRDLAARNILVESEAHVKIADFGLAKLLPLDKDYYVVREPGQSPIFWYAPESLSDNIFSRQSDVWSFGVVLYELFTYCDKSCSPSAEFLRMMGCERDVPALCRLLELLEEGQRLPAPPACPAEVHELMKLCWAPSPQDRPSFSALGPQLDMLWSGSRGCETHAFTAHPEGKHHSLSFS
Excerpt: (§1) The biochemical tests of BMX, BLK, JAK3, TXK, HER2, HER4, ITK, EGFR, and BTK were provided by Invitrogen (Carlsbad, CA, USA).

[6] = target: T2, EGFR (Homo sapiens, UniProt P00533); assay: ADP-Glo biochemical kinase assay
T2 construct: purchased Invitrogen (Carlsbad, CA, USA)
T2 sequence (P00533 25-1210): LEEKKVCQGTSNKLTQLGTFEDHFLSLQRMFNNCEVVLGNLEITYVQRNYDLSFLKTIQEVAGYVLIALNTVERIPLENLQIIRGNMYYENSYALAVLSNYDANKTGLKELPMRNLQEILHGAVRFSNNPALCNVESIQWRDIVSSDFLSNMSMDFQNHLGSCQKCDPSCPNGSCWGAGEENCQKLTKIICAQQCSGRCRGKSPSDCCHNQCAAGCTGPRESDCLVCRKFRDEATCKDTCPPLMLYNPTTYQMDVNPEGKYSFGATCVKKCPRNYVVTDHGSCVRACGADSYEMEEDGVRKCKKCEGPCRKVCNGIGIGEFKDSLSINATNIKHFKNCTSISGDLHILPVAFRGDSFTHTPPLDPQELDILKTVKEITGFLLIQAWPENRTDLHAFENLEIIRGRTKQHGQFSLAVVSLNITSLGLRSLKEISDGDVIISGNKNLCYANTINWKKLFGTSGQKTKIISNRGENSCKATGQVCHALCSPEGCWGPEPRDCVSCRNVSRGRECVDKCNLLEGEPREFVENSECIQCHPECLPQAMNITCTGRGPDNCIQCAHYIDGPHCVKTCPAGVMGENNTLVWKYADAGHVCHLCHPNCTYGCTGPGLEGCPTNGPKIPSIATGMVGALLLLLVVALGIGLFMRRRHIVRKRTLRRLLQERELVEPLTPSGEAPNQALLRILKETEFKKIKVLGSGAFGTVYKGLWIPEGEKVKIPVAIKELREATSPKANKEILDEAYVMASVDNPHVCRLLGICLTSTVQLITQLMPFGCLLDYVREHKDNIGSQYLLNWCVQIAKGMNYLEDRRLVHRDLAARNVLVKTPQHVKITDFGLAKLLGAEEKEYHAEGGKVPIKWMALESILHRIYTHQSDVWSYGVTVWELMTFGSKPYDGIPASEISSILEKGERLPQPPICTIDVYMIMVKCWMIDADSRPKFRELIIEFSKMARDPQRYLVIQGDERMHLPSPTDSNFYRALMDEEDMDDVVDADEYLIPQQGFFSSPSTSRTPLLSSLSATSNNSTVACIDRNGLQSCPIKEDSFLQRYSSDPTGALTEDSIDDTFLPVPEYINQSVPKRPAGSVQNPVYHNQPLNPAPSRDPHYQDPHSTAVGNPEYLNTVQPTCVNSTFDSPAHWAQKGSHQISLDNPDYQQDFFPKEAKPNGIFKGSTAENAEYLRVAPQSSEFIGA
Excerpt: as §1

[7] = tested on: PRKD2; assay: KINOMEscan; type: binding; details: 1000 nM
[8] = tested on: PIK3CA(Q546K); assay: KINOMEscan; type: binding; details: 1000 nM
[9] = tested on: CSF1R; assay: KINOMEscan; type: binding; details: 1000 nM
[10] = tested on: ALK(L1196M); assay: KINOMEscan; type: binding; details: 1000 nM
[11] = tested on: TSSK3; assay: KINOMEscan; type: binding; details: 1000 nM
[12] = tested on: ERBB4; assay: KINOMEscan; type: binding; details: 1000 nM
[13] = tested on: RET(V804L); assay: KINOMEscan; type: binding; details: 1000 nM
[14] = tested on: DYRK1B; assay: KINOMEscan; type: binding; details: 1000 nM
[15] = tested on: TAOK1; assay: KINOMEscan; type: binding; details: 1000 nM
[16] = tested on: PIK3CG; assay: KINOMEscan; type: binding; details: 1000 nM
[17] = tested on: NDR1; assay: KINOMEscan; type: binding; details: 1000 nM
[18] = tested on: ULK2; assay: KINOMEscan; type: binding; details: 1000 nM
[19] = tested on: ROCK1; assay: KINOMEscan; type: binding; details: 1000 nM
[20] = tested on: TEC; assay: KINOMEscan; type: binding; details: 1000 nM
[21] = tested on: MARK2; assay: KINOMEscan; type: binding; details: 1000 nM
[22] = tested on: ZAP70; assay: KINOMEscan; type: binding; details: 1000 nM
[23] = tested on: JNK2; assay: KINOMEscan; type: binding; details: 1000 nM
[24] = tested on: BRSK2; assay: KINOMEscan; type: binding; details: 1000 nM
[25] = tested on: CHEK2; assay: KINOMEscan; type: binding; details: 1000 nM
[26] = tested on: MYLK; assay: KINOMEscan; type: binding; details: 1000 nM
[27] = tested on: LIMK1; assay: KINOMEscan; type: binding; details: 1000 nM
[28] = tested on: CSNK1G2; assay: KINOMEscan; type: binding; details: 1000 nM
[29] = tested on: NEK6; assay: KINOMEscan; type: binding; details: 1000 nM
[30] = tested on: KIT(L576P); assay: KINOMEscan; type: binding; details: 1000 nM
[31] = tested on: EPHA6; assay: KINOMEscan; type: binding; details: 1000 nM
[32] = tested on: MAP3K15; assay: KINOMEscan; type: binding; details: 1000 nM
[33] = tested on: SRC; assay: KINOMEscan; type: binding; details: 1000 nM
[34] = tested on: EPHA3; assay: KINOMEscan; type: binding; details: 1000 nM
[35] = tested on: PFPK5(P.falciparum); assay: KINOMEscan; type: binding; details: 1000 nM
[36] = tested on: LRRK2; assay: KINOMEscan; type: binding; details: 1000 nM
[37] = tested on: OSR1; assay: KINOMEscan; type: binding; details: 1000 nM
[38] = tested on: NEK11; assay: KINOMEscan; type: binding; details: 1000 nM
[39] = tested on: MET(Y1235D); assay: KINOMEscan; type: binding; details: 1000 nM
[40] = tested on: MAP3K4; assay: KINOMEscan; type: binding; details: 1000 nM
[41] = tested on: NEK4; assay: KINOMEscan; type: binding; details: 1000 nM
[42] = tested on: FGFR4; assay: KINOMEscan; type: binding; details: 1000 nM
[43] = tested on: JAK1(JH1domain-catalytic); assay: KINOMEscan; type: binding; details: 1000 nM
[44] = tested on: LATS2; assay: KINOMEscan; type: binding; details: 1000 nM
[45] = tested on: PCTK2; assay: KINOMEscan; type: binding; details: 1000 nM
[46] = tested on: EGFR(E746-A750del); assay: KINOMEscan; type: binding; details: 1000 nM
[47] = tested on: MAK; assay: KINOMEscan; type: binding; details: 1000 nM
[48] = tested on: FES; assay: KINOMEscan; type: binding; details: 1000 nM
[49] = tested on: PRKCD; assay: KINOMEscan; type: binding; details: 1000 nM
[50] = tested on: RPS6KA5(Kin.Dom.1-N-terminal); assay: KINOMEscan; type: binding; details: 1000 nM
[51] = tested on: FLT3(R834Q); assay: KINOMEscan; type: binding; details: 1000 nM

C=CC(=O)Nc1cc(Nc2cc(-c3cccc(NC(=O)c4cc5c(s4)CCCC5)c3C)cn(C)c2=O)ccc1N1CCN(CC)CC1 [CHMFL-BTK-85]
Percent Control [1]: 97% | Percent Control [2]: 99% | Percent Control [3]: 96% | Percent Control [4]: 93% | IC50 [5]: 2720 ± 45 nM | IC50 ([6]; read-out: IC50 against EGFR): > 10000 nM | selectivity over EGFR ([6]; vs BTK): more than 1000 fold | Percent Control [7]: 100% | Percent Control [8]: 100% | Percent Control [9]: 90% | Percent Control [10]: 100% | Percent Control [11]: 100% | Percent Control [12]: 91% | Percent Control [13]: 76% | Percent Control [14]: 99% | Percent Control [15]: 94% | Percent Control [16]: 100% | Percent Control [17]: 100% | Percent Control [18]: 100% | Percent Control [19]: 100% | Percent Control [20]: 100% | Percent Control [21]: 91% | Percent Control [22]: 100% | Percent Control [23]: 100% | Percent Control [24]: 99% | Percent Control [25]: 94% | Percent Control [26]: 66% | Percent Control [27]: 98% | Percent Control [28]: 98% | Percent Control [29]: 100% | Percent Control [30]: 79% | Percent Control [31]: 100% | Percent Control [32]: 96% | Percent Control [33]: 77% | Percent Control [34]: 98% | Percent Control [35]: 100% | Percent Control [36]: 100% | Percent Control [37]: 100% | Percent Control [38]: 100% | Percent Control [39]: 97% | Percent Control [40]: 92% | Percent Control [41]: 100% | Percent Control [42]: 92% | Percent Control [43]: 96% | Percent Control [44]: 100% | Percent Control [45]: 100% | Percent Control [46]: 100% | Percent Control [47]: 89% | Percent Control [48]: 98% | Percent Control [49]: 77% | Percent Control [50]: 90% | Percent Control [51]: 100%
